Data published in patent US20220187282A1, “CARDIOMYOCYTE PROLIFERATION” (The Council of the Queensland Institute of Medical Research, priority 2019, published 2022).
Like-named read-outs stand apart in the source and are kept apart here.

How the values were obtained:
Format in all cases: biochemical
kinases [1] = target: kinases (Homo sapiens, UniProt O00750); details: PIK3C2B FRET-Adapta SP; Test Conc(μM):ATP Conc(μM) 1:10
kinases [2] = target: kinases (Homo sapiens, UniProt O75460); details: ERN1 FRET-Lantha SP; Test Conc(μM) 1
kinases [3] = target: kinases (Homo sapiens, UniProt O75747); details: PIK3C2G FRET-Adapta SP; Test Conc(μM):ATP Conc(μM) 1:10
kinases [4] = target: kinases (Homo sapiens, UniProt P06241)
kinases [5] = target: kinases (Homo sapiens, UniProt P09619); details: PDGFRB *Mn* FRET-Z-Lyte SP; Test Conc(μM):ATP Conc(μM) 1:100
kinases [6] = target: kinases (Homo sapiens, UniProt P16591); details: FER FRET-Z-Lyte SP; Test Conc(μM):ATP Conc(μM) 1:25
kinases [7] = target: kinases (Homo sapiens, UniProt P19525); details: EIF2AK2 (PKR) FRET-Lantha SP; Test Conc(μM) 1
kinases [8] = target: kinases (Homo sapiens, UniProt P30530); details: AXL FRET-Z-Lyte SP; Test Conc(μM):ATP Conc(μM) 1:75
kinases [9] = target: kinases (Homo sapiens, UniProt P41743); details: PRKCI (PKC iota) Z-Lyte SP; Test Conc(μM):ATP Conc(μM) 1:25
kinases [10] = target: kinases (Homo sapiens, UniProt P49137); details: MAPKAPK2 FRET-Z-Lyte SP; Test Conc(μM):ATP Conc(μM) 1:5
kinases [11] = target: kinases (Homo sapiens, UniProt P49759); details: CLK1 FRET-Z-Lyte SP; Test Conc(μM):ATP Conc(μM) 1:25
kinases [12] = target: kinases (Homo sapiens, UniProt P51451); details: BLK FRET-Z-Lyte SP; Test Conc(μM):ATP Conc(μM) 1:25
kinases [13] = target: kinases (Homo sapiens, UniProt P51817); details: PRKX FRET-Z-Lyte SP; Test Conc(μM):ATP Conc(μM) 1:10
kinases [14] = target: kinases (Homo sapiens, UniProt P53667); details: LIMK1 FRET-Lantha SP; Test Conc(μM) 1
kinases [15] = target: kinases (Homo sapiens, UniProt P54753); details: EPHB3 FRET-Z-Lyte SP; Test Conc(μM):ATP Conc(μM) 1:75
kinases [16] = target: kinases (Homo sapiens, UniProt P57058); details: HUNK FRET-Lantha SP; Test Conc(μM) 1
kinases [17] = target: kinases (Homo sapiens, UniProt P80192); details: MAP3K9 (MLK1) FRET-Z-Lyte SP; Test Conc(μM):ATP Conc(μM) 1:75
kinases [18] = target: kinases (Homo sapiens, UniProt Q13188); details: STK3 (MST2) FRET-Z-Lyte SP; Test Conc(μM):ATP Conc(μM) 1:50
kinases [19] = target: kinases (Homo sapiens, UniProt Q13627); details: DYRK1A FRET-Z-Lyte SP; Test Conc(μM):ATP Conc(μM) 1:100
kinases [20] = target: kinases (Homo sapiens, UniProt Q13705); details: ACVR2B FRET-Lantha SP; Test Conc(μM) 1
kinases [21] = target: kinases (Homo sapiens, UniProt Q14164); details: IKBKE (IKK epsilon) Z-Lyte SP; Test Conc(μM):ATP Conc(μM) 1:10
kinases [22] = target: kinases (Homo sapiens, UniProt Q15208); details: STK38 FRET-Lantha SP; Test Conc(μM) 1
kinases [23] = target: kinases (Homo sapiens, UniProt Q5TCX8); details: MLK4 FRET-Lantha SP; Test Conc(μM) 1
kinases [24] = target: kinases (Homo sapiens, UniProt Q9BUB5); details: MKNK1 (MNK1) *Mn* Z-Lyte SP; Test Conc(μM):ATP Conc(μM) 1:100
kinases [25] = target: kinases (Homo sapiens, UniProt Q9H4A3); details: Test Conc(μM) 1
kinases [26] = target: kinases (Homo sapiens, UniProt Q9HC98); details: NEK6 FRET-Z-Lyte SP; Test Conc(μM):ATP Conc(μM) 1:100
kinases [27] = target: kinases (Homo sapiens, UniProt Q9UBF8); details: PI4KB FRET-Adapta SP; Test Conc(μM):ATP Conc(μM) 1:5
kinases [28] = target: kinases (Homo sapiens, UniProt Q9Y2U5); details: MAP3K2 (MEKK2) FRET-Lantha SP; Test Conc(μM) 1
kinases [29] = target: kinases (Homo sapiens, UniProt Q9Y6E0); details: STK24 (MST3) FRET-Z-Lyte SP; ATP Conc(μM):Test Conc(μM) 1:50
[30] = FYN A FRET-Lantha SP, Test Conc(μM) 1
[31] = FYN FRET-Z-Lyte SP, Test Conc(μM):ATP Conc(μM) 1:75

Chain of kinases (Homo sapiens, UniProt P06241) (P06241 whole entry): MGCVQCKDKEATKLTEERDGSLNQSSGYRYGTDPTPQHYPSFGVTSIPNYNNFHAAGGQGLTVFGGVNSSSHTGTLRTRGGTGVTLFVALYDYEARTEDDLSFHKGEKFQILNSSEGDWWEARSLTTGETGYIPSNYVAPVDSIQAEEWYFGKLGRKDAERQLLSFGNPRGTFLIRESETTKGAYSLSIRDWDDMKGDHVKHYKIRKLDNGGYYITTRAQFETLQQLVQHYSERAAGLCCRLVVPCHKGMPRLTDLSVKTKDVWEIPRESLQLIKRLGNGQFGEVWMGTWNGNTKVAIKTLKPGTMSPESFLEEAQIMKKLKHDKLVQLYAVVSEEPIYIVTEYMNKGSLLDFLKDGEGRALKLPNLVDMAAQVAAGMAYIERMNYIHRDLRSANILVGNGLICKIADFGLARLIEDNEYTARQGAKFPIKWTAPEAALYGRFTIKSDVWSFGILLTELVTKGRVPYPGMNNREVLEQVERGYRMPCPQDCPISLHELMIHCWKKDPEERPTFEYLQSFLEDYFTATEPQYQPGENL
Chain of kinases (Homo sapiens, UniProt Q5TCX8) (Q5TCX8 whole entry): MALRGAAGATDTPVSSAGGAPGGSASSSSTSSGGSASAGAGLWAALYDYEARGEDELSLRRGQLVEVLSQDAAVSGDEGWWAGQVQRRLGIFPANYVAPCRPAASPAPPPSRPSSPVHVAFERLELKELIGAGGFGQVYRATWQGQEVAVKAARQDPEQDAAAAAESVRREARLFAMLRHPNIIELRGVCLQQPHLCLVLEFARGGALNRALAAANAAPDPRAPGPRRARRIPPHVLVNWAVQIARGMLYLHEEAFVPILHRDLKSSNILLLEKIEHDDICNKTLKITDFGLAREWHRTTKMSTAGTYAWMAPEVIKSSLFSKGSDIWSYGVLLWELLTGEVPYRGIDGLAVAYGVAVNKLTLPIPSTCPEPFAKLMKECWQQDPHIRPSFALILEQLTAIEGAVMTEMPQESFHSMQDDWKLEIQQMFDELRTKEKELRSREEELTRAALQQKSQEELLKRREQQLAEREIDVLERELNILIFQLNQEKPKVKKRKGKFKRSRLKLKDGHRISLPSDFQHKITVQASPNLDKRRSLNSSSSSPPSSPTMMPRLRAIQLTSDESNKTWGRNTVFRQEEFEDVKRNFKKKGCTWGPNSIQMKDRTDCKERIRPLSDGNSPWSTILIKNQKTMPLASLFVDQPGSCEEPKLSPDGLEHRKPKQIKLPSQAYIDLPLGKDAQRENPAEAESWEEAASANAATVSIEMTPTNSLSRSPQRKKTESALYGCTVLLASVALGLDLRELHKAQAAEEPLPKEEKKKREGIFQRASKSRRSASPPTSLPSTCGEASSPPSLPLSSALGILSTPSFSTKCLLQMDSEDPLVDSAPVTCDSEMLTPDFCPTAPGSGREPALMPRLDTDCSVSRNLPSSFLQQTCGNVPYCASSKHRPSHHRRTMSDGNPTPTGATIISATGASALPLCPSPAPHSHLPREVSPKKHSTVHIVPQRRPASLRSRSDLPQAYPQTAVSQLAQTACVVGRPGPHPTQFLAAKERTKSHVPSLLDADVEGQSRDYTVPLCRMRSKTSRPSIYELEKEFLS
Chain of kinases (Homo sapiens, UniProt Q9UBF8) (Q9UBF8 whole entry): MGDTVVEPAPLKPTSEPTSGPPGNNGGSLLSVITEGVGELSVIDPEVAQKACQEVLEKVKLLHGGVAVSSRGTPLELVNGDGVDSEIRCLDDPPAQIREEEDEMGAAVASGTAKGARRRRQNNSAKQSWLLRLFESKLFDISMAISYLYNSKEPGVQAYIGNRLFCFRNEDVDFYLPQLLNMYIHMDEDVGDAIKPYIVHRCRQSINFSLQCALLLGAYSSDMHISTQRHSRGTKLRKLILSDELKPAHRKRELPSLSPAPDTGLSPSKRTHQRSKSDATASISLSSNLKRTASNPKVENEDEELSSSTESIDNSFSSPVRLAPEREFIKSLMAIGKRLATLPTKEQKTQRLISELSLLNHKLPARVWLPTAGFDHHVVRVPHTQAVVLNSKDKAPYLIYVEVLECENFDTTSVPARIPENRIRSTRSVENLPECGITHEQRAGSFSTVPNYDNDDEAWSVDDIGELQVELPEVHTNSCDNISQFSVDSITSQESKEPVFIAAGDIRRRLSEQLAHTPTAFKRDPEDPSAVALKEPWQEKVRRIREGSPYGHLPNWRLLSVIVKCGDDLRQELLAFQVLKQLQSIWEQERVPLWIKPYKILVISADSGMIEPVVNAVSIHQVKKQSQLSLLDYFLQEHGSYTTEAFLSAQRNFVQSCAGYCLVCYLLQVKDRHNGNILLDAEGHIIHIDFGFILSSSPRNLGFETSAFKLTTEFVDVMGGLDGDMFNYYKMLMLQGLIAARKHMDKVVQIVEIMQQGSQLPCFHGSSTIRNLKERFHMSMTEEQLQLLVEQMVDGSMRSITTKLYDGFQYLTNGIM
Chain of kinases (Homo sapiens, UniProt P41743) (P41743 whole entry): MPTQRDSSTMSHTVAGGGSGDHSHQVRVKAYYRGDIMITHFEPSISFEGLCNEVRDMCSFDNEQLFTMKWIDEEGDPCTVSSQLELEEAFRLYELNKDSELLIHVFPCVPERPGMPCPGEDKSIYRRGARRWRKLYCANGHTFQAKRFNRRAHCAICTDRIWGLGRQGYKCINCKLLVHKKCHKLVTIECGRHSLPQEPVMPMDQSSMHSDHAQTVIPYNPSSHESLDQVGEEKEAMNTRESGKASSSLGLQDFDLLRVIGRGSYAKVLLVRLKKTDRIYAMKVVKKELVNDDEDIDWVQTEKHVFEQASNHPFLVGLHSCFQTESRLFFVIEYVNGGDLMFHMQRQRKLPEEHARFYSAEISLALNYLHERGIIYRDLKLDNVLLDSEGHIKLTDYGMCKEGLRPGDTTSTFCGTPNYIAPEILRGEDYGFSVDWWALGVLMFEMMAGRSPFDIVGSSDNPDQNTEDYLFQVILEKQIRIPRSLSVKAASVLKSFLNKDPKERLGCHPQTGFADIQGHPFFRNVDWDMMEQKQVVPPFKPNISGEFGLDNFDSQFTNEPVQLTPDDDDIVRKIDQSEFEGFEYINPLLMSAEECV
Chain of kinases (Homo sapiens, UniProt O75460) (O75460 19-977): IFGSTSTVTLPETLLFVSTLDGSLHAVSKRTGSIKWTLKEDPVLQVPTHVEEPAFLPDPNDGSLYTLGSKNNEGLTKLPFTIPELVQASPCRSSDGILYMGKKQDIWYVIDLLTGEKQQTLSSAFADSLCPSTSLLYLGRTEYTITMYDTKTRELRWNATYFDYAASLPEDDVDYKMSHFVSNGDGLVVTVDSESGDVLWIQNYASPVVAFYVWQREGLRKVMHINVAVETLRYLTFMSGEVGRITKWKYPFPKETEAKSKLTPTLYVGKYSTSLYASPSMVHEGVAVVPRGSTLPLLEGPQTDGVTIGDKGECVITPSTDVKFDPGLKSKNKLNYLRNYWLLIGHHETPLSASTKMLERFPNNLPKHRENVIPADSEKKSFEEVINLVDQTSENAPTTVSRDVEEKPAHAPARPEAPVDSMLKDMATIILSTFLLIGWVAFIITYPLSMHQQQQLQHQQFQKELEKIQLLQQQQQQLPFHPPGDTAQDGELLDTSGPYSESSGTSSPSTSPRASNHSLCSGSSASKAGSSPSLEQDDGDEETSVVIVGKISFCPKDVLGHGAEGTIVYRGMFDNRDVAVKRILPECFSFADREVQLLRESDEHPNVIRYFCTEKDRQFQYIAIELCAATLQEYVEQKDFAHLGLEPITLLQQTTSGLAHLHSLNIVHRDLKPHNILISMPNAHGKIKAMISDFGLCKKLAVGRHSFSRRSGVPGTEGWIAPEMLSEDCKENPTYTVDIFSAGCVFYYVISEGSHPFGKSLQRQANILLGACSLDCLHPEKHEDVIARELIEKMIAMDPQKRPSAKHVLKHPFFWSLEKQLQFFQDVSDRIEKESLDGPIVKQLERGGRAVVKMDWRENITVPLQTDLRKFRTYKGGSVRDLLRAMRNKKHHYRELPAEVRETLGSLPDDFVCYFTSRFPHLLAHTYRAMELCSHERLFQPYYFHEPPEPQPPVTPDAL
Chain of kinases (Homo sapiens, UniProt P49137) (P49137 whole entry): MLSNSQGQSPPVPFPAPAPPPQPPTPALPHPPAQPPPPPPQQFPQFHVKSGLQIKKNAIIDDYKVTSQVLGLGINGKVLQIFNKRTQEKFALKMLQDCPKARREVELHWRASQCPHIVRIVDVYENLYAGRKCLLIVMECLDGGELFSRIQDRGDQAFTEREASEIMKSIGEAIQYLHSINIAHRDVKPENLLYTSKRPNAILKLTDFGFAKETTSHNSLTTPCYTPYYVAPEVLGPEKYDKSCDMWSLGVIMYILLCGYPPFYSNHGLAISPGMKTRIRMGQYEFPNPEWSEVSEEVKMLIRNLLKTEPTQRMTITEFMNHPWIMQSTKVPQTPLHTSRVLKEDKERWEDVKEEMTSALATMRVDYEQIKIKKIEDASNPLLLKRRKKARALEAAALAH
Chain of kinases (Homo sapiens, UniProt Q13188) (Q13188 whole entry): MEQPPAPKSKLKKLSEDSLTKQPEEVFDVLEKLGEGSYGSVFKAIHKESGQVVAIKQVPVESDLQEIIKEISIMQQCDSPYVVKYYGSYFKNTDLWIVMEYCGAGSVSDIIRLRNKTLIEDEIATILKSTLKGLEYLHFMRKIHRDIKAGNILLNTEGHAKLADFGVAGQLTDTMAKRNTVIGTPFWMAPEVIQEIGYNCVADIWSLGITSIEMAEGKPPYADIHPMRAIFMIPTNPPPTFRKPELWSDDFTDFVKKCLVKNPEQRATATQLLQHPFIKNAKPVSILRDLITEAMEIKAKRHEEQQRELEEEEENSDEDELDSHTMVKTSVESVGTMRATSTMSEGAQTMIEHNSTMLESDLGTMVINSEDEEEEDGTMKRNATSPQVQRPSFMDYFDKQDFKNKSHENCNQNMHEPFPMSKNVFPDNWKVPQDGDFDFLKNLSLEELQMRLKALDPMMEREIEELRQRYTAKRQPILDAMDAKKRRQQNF

Compound	Mean Inhib (%) (kinases [1])	Mean Inhib (%) (kinases [2])	Mean Inhib (%) (kinases [3])	Mean Inhib (%) (kinases [4]; [30])	Mean Inhib (%) (kinases [4]; [31])	Mean Inhib (%) (kinases [5])	Mean Inhib (%) (kinases [6])	Mean Inhib (%) (kinases [7])	Mean Inhib (%) (kinases [8])	Mean Inhib (%) (kinases [9])	Mean Inhib (%) (kinases [10])	Mean Inhib (%) (kinases [11])	Mean Inhib (%) (kinases [12])	Mean Inhib (%) (kinases [13])	Mean Inhib (%) (kinases [14])	Mean Inhib (%) (kinases [15])	Mean Inhib (%) (kinases [16])	Mean Inhib (%) (kinases [17])	Mean Inhib (%) (kinases [18])	Mean Inhib (%) (kinases [19])	also measured
Cc1ccc(NC(=O)c2ccnc(N3CCOCC3)c2)cc1Nc1ccnc(N2CC(C)OC(C)C2)n1 (stereo not drawn) [compound 3]	3.7	−3.4	5.6	4.8	5.1	15.5	4.8	2.8	−2.7	−0.2	−2.1	5.3	3.0	−3.2	2.2	−0.5	5.7	1.3	6.9	6.2	Mean Inhib (%) (kinases [20]): −2.1%; Mean Inhib (%) (kinases [21]): −3.5%; Mean Inhib (%) (kinases [22]): −9.2%; Mean Inhib (%) (kinases [23]): −1.5%; Mean Inhib (%) (kinases [24]): 5.3%; Mean Inhib (%) (kinases [25]; WNK1 FRET-Lantha SP): 2.7%; Mean Inhib (%) (kinases [26]): −4.0%; Mean Inhib (%) (kinases [27]): −9.0%; Mean Inhib (%) (kinases [28]): 3.5%; Mean Inhib (%) (kinases [29]): −7.6%
Cc1cc(Oc2ccnc(Nc3ccc(S(N)(=O)=O)cc3)c2)c(-c2ccccn2)nc1C [compound 65]	−0.9	1.0	0.4	27.5	43.1	3.9	5.0	3.6	1.1	9.7	9.2	5.8	9.7	1.8	1.8	1.6	11.5	3.4	1.1	−1.9	Mean Inhib (%) (kinases [20]): 95.6%; Mean Inhib (%) (kinases [21]): −2.3%; Mean Inhib (%) (kinases [22]): 3.1%; Mean Inhib (%) (kinases [23]): 1.9%; Mean Inhib (%) (kinases [24]): 1.5%; WNK1 FRET-Lantha SP Mean Mean Inhib (%) (kinases [25]; WNK1): 5.3%; Mean Inhib (%) (kinases [26]): 8.2%; Mean Inhib (%) (kinases [27]): 0.5%; Mean Inhib (%) (kinases [28]): 5.7%; Mean Inhib (%) (kinases [29]): 4.9%
